Laboratory results from patent US20120016010A1, “RNA Interference Mediated Inhibition of BTB and CNC Homology 1, Basic Leucine Zipper Transcription Factor 1 (BACH1) Gene Expression Using Short Interfering Nucleic Acid (siNA)” (Merck Sharp & Dohme Corp, priority 2009, published 2012).
[invAb] = inverted abasic unit; d = 2'-deoxy (DNA); m = 2'-O-methyl; r = 2'-OH (RNA); f = 2'-fluoro

Columns and labels:
[1] = tested on: Bach1 mRNA; experiment: Initial screen: Bach1 mRNA knock-down in human A549 cells (96-well transfection, quantitative RT-PCR); type: cell-based; details: Bach1 mRNA, 10 nM siNA, human A549 cells, n = 2, mean ± S.D., normalized to GAPDH and non-targeting control, 24 hrs post-transfection
Procedure: (§1) All cells were obtained from ATCC (Manassas, Va.) unless otherwise indicated. Cells were grown and transfected under standard conditions, which are detailed below for each cell line.
(§2) Cells were plated in all wells of a tissue-culture treated, 96-well plate at a final count of 5000 cells/well in 100 μL of the appropriate culture media. The cells were cultured for 24 hours after plating at 37° C. in the presence of 5% CO2.
(§3) After 24 hours, complexes containing siNA and RNAiMax were created as follows: A solution of RNAiMax diluted 33-fold in OPTI-MEM was prepared. […] After incubation of RNAiMax/OPTI-MEM solution at room temperature for 5 min, an equal volume of the siNA solution and the RNAiMax solution were added together for each of the siNAs.
(§4) This solution was incubated at room temperature for 20 minutes. After incubation, 20 uL of the solution was added to each of the relevant wells. The final concentration of siNA in each well was 10 nM and the final volume of RNAiMax in each well was 0.3 ul. […]
(§5) Briefly, a 60 uL (1 plate) or 110 uL (2 plates) of the Lysis Solution with DNase I was dispensed into each well of the Lysis Buffer Plate (twin.tec full skirt plate). The lysis buffer and stop plates were stored at 4° C. until the cells were washed.
(§6) The plate was spun at 1100 rpm for 5 minutes. The culture medium was aspirated and discarded from the wells of the culture plate. The lysis was performed automatically using a BioMek FX instrument and method. After the Biomek method was completed, the lysis plate was incubated for 2 min at room temperature. The lysis plate can be stored for 2 hours at 4° C., or at −20° C. or −80° C. for two months.
(§7) Each well of the reverse transcription plate required 10 uL of 2× reverse transcriptase Buffer, 1 uL of 20× reverse transcription enzyme and 2 uL of nuclease-free water. The reverse transcription master mix was prepared by mixing 2× reverse transcription buffer, 20× reverse transcription enzyme mix, and nuclease-free water. 13 uL of the reverse transcription master mix was dispensed into each well of the reverse transcription plate (semi-skirted). A separate reverse transcription plate was prepared for each cell plate. The plate was loaded onto a Biomek NX or Biomek FX Dual −96 and the Biomek method was run. The program is programmed to automatically added 7 uL of lysate from the cell lysis procedure described above into each well of the reverse transcription plate. The plate is sealed and spun on a centrifuge (1000 rpm for 30 seconds) to settle the contents to the bottom of the reverse transcription plate. The plate is placed in a thermocycler at 37° C. for 60 min, 95° C. for 5 min, and 4° C. until the plate is removed from the thermocycler. Upon removal, if not used immediately, the plate was frozen at −20° C.
(§8) A series of probes and primers were used to detect the various mRNA transcripts of the genes of Bach1, HMOX-1, and GAPDH in mouse and human cell lines. The assays were performed on an ABI 7900 instrument, according to the manufacturer's instructions. […] The PCR reactions were carried out at 50° C. for 2 min, 95° C. for 20 min followed by 40 cycles at 95° C. for 15 secs and 60° C. for 1 min
(§9) Within each experiment, the […] was set in the exponential phase of the amplification curve, and based on the intersection point of the baselines with the amplification curve, a Ct value was assigned by the instrument.
(§10) The expression level of the gene of interest and % knock-down was calculated using Comparative Ct method:
(§11) ΔCt=ΔCt(Target siRNA)−ΔCt(NTC)
(§12) Relative expression level=2^−ΔΔCt
(§13) The non-targeting control siNA was, unless otherwise indicated, chosen as the value against which to calculate the % knock-down, because it is the most relevant control.

[2] = tested on: Bach1 mRNA; experiment: Initial screen: Bach1 mRNA knock-down in mouse NIH 3T3 cells (96-well transfection, quantitative RT-PCR); type: cell-based; details: mouse NIH3T3 cells, n = 2, 24 hrs post-transfection, protocol 10 nM siNA
Procedure: as §1, §2, §3, §4, §5, §6, §7, §8, §9, §10, §11, §12, §13

Substance | % KD [1] [%] | % KD [2] [%]
29963-DC: Bach1 siNA duplex, target site 362; sense B GGAuuuGAAccuuuAAuuc TTB (SEQ 75); antisense GAAuuAAAGGuucAAAuccUU (SEQ 76) (sense GGAUUUGAACCUUUAAUUCTT; antisense GAAUUAAAGGUUCAAAUCCUU; sense: DNA at AGT, 2'-fluoro at CU, [invAb] at 5' end, 3' end, backbone not given here; antisense: sugars from the 5' end rrrffmmmmmfffmmmfffmm, backbone not given here) | 32.9 ± 3.4 | 18.5 ± 2.2
29965-DC: Bach1 siNA duplex, target site 596; sense B GAccAGAGGGAucuAGAAA TTB (SEQ 79); antisense UUUcuAGAucccucuGGucUU (SEQ 80) (sense GACCAGAGGGAUCUAGAAATT; antisense UUUCUAGAUCCCUCUGGUCUU; sense: sugars from the 5' end d2 f2 d7 f3 d7, [invAb] at 5' end, 3' end, backbone not given here; antisense: sugars from the 5' end rrrffmmmfffffffmmffmm, backbone not given here) | 34.4 ± 3.6 | 4.8 ± 6.3
29966-DC: Bach1 siNA duplex, target site 1375; sense B GGccAAAGAuGGcucAGAA TTB (SEQ 81); antisense UUCuGAGccAucuuuGGccUU (SEQ 82) (sense GGCCAAAGAUGGCUCAGAATT; antisense UUCUGAGCCAUCUUUGGCCUU; sense: DNA at AGT, 2'-fluoro at CU, [invAb] at 5' end, 3' end, backbone not given here; antisense: sugars from the 5' end rrrfmmmffmfffffmmffmm, backbone not given here) | 57.3 ± 5.9 | −12.7 ± 7.4
29967-DC: Bach1 siNA duplex, target site 494 (mouse); sense B GAGuuucuAAGcGuAcAcA TTB (SEQ 83); antisense UGUGuAcGcuuAGAAAcucUU (SEQ 84) (sense GAGUUUCUAAGCGUACACATT; antisense UGUGUACGCUUAGAAACUCUU; sense: DNA at AGT, 2'-fluoro at CU, [invAb] at 5' end, 3' end, backbone not given here; antisense: sugars from the 5' end rrrmfmfmfffmmmmmfffmm, backbone not given here) | 34.6 ± 6.7 | 34.7 ± 8.4
29968-DC: Bach1 siNA duplex, target site 671 (mouse); sense B GcAGAuGAAuucuuGGAAA TTB (SEQ 85); antisense UUUccAAGAAuucAucuGcUU (SEQ 86) (sense GCAGAUGAAUUCUUGGAAATT; antisense UUUCCAAGAAUUCAUCUGCUU; sense: DNA at AGT, 2'-fluoro at CU, [invAb] at 5' end, 3' end, backbone not given here; antisense: sugars from the 5' end rrrffmmmmmfffmfffmfmm, backbone not given here) | 28.2 ± 3.7 | 71 ± 8.7
29969-DC: Bach1 siNA duplex, target site 1790 (mouse); sense B GAuuuccAAuccuuGuuGA TTB (SEQ 87); antisense UCAAcAAGGAuuGGAAAucUU (SEQ 88) (sense GAUUUCCAAUCCUUGUUGATT; antisense UCAACAAGGAUUGGAAAUCUU; sense: DNA at AGT, 2'-fluoro at CU, [invAb] at 5' end, 3' end, backbone not given here; antisense: sugars from the 5' end rrrmfmmmmmffmmmmmffmm, backbone not given here) | 36 ± 7.3 | 72.7 ± 4.5
29970-DC: Bach1 siNA duplex, target site 1472 (mouse); sense B GAGuGucccuGGuuGGGuA TTB (SEQ 89); antisense UACccAAccAGGGAcAcucUU (SEQ 90) (sense GAGUGUCCCUGGUUGGGUATT; antisense UACCCAACCAGGGACACUCUU; sense: DNA at AGT, 2'-fluoro at CU, [invAb] at 5' end, 3' end, backbone not given here; antisense: sugars from the 5' end rrrffmmffmmmmmfmfffmm, backbone not given here) | 46.8 ± 5.1 | 69.4 ± 4.8
29971-DC: Bach1 siNA duplex, target site 2488 (mouse); sense B GuAGcuuucuGuuGAGGGA TTB (SEQ 91); antisense UCCcucAAcAGAAAGcuAcUU (SEQ 92) (sense GUAGCUUUCUGUUGAGGGATT; antisense UCCCUCAACAGAAAGCUACUU; sense: sugars from the 5' end rfddffffffdffdddddddd, [invAb] at 5' end, 3' end, backbone not given here; antisense: sugars from the 5' end rrrfffmmfmmmmmmffmfmm, backbone not given here) | 23.9 ± 3.8 | 75 ± 4.7
29972-DC: Bach1 siNA duplex, target site 1262 (mouse); sense B GAuuuAuAucuGAAGucuA TTB (SEQ 93); antisense UAGAcuucAGAuAuAAAucUU (SEQ 94) (sense GAUUUAUAUCUGAAGUCUATT; antisense UAGACUUCAGAUAUAAAUCUU; sense: DNA at AGT, 2'-fluoro at CU, [invAb] at 5' end, 3' end, backbone not given here; antisense: sugars from the 5' end rrrmffffmmmfmfmmmffmm, backbone not given here) | −3.3 ± 27.4 | 71.7 ± 5.5
29973-DC: Bach1 siNA duplex, target site 1780 (mouse); sense B cucAcGAAAuGAuuuccAA TTB (SEQ 95); antisense UUGGAAAucAuuucGuGAGUU (SEQ 96) (sense CUCACGAAAUGAUUUCCAATT; antisense UUGGAAAUCAUUUCGUGAGUU; sense: DNA at AGT, 2'-fluoro at CU, [invAb] at 5' end, 3' end, backbone not given here; antisense: sugars from the 5' end rrrmmmmffmffffmfmmmmm, backbone not given here) | −8 ± 11.1 | 76.4 ± 5.3
29974-DC: Bach1 siNA duplex, target site 1739 (mouse); sense B GAGGuGAAGcuGccAuucA TTB (SEQ 97); antisense UGAAuGGcAGcuucAccucUU (SEQ 98) (sense GAGGUGAAGCUGCCAUUCATT; antisense UGAAUGGCAGCUUCACCUCUU; sense: DNA at AGT, 2'-fluoro at CU, [invAb] at 5' end, 3' end, backbone not given here; antisense: sugars from the 5' end rrrmfmmfmmffffmffffmm, backbone not given here) | −4.3 ± 15.5 | −12 ± 6.9
